What was measured:
Mel270 cells = test: blocking assay: CAMK1D inhibitor plus rHuFasL, luciferase-based cytotoxicity assay; type: cell-based, human; details: Mel270 uveal melanoma cells; rHuFasL 100 ng/mL, 20 h
Procedure: (§1) KMM-1-luc cells were reverse transfected with the desired siRNA sequences in white 96-well-plate (Perkin Elmer) and incubated for 48 h at 37° C., 5% CO2. At the same day of transfection MILs were thawn and treated with benzonase (too IU/mL) (Merck). Cell density was adjusted to 0.6×10^6 cells/mL in CLM supplemented with 3000 IU/mL rhuIL-2 (Novartis) for 48 h. IL-2 was depleted 24 h before the co-culture. Flu TC were thawn 6 h before co-culture. For the cytotoxicity setting, MILs, flu TC, the supernatant of activated MILs or rHuFasL were added to transfected tumor cells at desired E:T ratio/concentration, and incubated for 20 h at 37° C., 5% CO2. For the viability setting, only CLM was added to the tumor cells. After co-culture, supernatant was removed, remaining tumor cells were lysed using 40 μL/well of cell lysis buffer for 10 min. After tumor cell lysis, 60 μL/well of luciferase assay buffer was added and luciferase intensity was measured by using the Spark 20M plate reader (Tecan) with a counting time of 100 msec. Luciferase activities (relative luminescence units=RLUs) were either represented as raw luciferase values or as normalized data to scramble or unstimulated controls. For the experiments using the anti-Calmodulin (W7) (Tocris) inhibitor, 1×10^4 KMM-1-luc (scr or CAMK1D-transfected) cells/well were seeded in white 96 well plates (Perkin Elmer) in 100 μL of RPMI 10% FCS. […]

KMM-1-luc cells [1] = test: as above; type: cell-based, human; details: KMM-1 multiple myeloma cells; rHuFasL 100 ng/mL, 20 h
Procedure: as §1

[2] = molecular target: T1, recombinantly expressed CAMK1D protein kinase (Homo sapiens, UniProt Q8IU85); test: radiometric protein kinase assay (33PanQinase Activity Assay) of CAMK1D kinase activity; type: biochemical; details: 10 concentrations (1x10-05 M to 3x10-10 M), singlicate; read-out: IC50 of CAMK1D kinase inhibition
T1 construct: purchased ProQinase (Freiburg, Germany)
Procedure: QPP was identified as CAMK1D inhibitor in a radiometric protein kinase assay (PanQinase® Activity Assay) used for measuring the kinase activity of a recombinantly expressed CAMK1D protein kinase. All assays were performed with a BeckmanCoulter/SAGIAN™ Core System.

KMM-1-luc cells [3] = test: blocking assay: CaM inhibitor (W7) with or without rHuFasL, luciferase-based cytotoxicity assay; type: cell-based, human
Procedure: (§2) KMM-1-luc cells were reverse transfected with the desired siRNA sequences in white 96-well-plate (Perkin Elmer) and incubated for 48 h at 37° C., 5% CO2. At the same day of transfection MILs were thawn and treated with benzonase (too IU/mL) (Merck). Cell density was adjusted to 0.6×10^6 cells/mL in CLM supplemented with 3000 IU/mL rhuIL-2 (Novartis) for 48 h. IL-2 was depleted 24 h before the co-culture. Flu TC were thawn 6 h before co-culture. For the cytotoxicity setting, MILs, flu TC, the supernatant of activated MILs or rHuFasL were added to transfected tumor cells at desired E:T ratio/concentration, and incubated for 20 h at 37° C., 5% CO2. For the viability setting, only CLM was added to the tumor cells. After co-culture, supernatant was removed, remaining tumor cells were lysed using 40 μL/well of cell lysis buffer for 10 min. After tumor cell lysis, 60 μL/well of luciferase assay buffer was added and luciferase intensity was measured by using the Spark 20M plate reader (Tecan) with a counting time of 100 msec. Luciferase activities (relative luminescence units=RLUs) were either represented as raw luciferase values or as normalized data to scramble or unstimulated controls.
For the experiments using the anti-Calmodulin (W7) (Tocris) inhibitor, 1×10^4 KMM-1-luc (scr or CAMK1D-transfected) cells/well were seeded in white 96 well plates (Perkin Elmer) in 100 μL of RPMI 10% FCS. The small molecule inhibitor was added at the indicated concentrations for 1 h at 37° C., before 100 ng/mL rHuFasL or medium control was added. DMSO treatment served as negative control. After 20 h stimulation, luciferase-based cytotoxicity assay was performed. For CAMK1D inhibition, 1×10^4 KMM-1-luc or 1×10^4 Mel270 cells/well were incubated overnight in a 96 well plate. OMX2001 was added at the indicated concentrations 1 h before rHuFasL stimulation (100 ng/mL) or medium control. DMSO treatment served as negative control. After 20h stimulation, luciferase-based cytotoxicity assay was performed.

CAMK1D mRNA = CAMK1D mRNA knockdown by qPCR; type: cell-based, human; details: KMM-1 cells, 48h after transfection, normalized to β-actin
Procedure: Gene expression was measured using end-point PCR. Briefly, total RNA was isolated from cell pellets using the RNeasy Mini kit (Qiagen) according to the manufacturer's guidelines. 1 μg of RNA was reverse transcribed to complementary DNA (cDNA) using the QuantiTect reverse transcription kit (Qiagen) according to the manufacturer's protocol. Synthesized cDNA was amplified using conventional PCR. PCR samples were set up in a 25 μL volume using 2×MyTaq HS Red Mix (Bioline), 500 nM of gene-specific primer mix and 100 ng of template cDNA. The PCR program was set as the following: 95° C. for 3 min, 35 cycles of 3 repetitive steps of denaturation (95° C. for 30 s), annealing (60° C. for 30 s) and extension (72° C. for 30 s), and a final step at 72° C. for 5 min. PCR products were run on a 2% agarose gel in TAE buffer using a gel electrophoresis system (Thermo Scientific) and DNA bands were visualized using UV light of myECL Imager (Thermo Scientific). Knockdown efficiency of siRNA sequences was measured by quantitative PCR (qPCR). For qPCR, 10 ng of template cDNA, 2× QuantiFast SYBR Green PCR mix (Qiagen) and 300 nM of gene-specific primer mix was used per 20 μL reaction and each sample was prepared in triplicates. Reactions were run using the QuantStudio 3 (Applied Biosystems). Expression of several genes was normalized to the expression of β-actin gene and the analysis was performed using comparative Ct method.
Gene knockdown in tumor cells was induced using reverse siRNA transfection with Lipofectamine RNAiMAX (Thermo Scientific). Briefly, 200 μL of 250 nM siRNA solution was added to each well of a 6-well plate. 4 μl of RNAiMAX transfection reagent was diluted in 196 μL of RPMI (Sigma-Aldrich) and incubated for 10 min at room temperature (RT). 400 μL of additional RPMI was added and 600 μL of RNAiMAX mix was given to the siRNA coated wells and incubated for 30 min at RT. 3.5×10^5 KMM-1 (WT or luc) cells were resuspended in 1.2 mL of antibiotic-free RPMI culture medium supplemented with 10% FCS, seeded in the siRNA-RNAiMAX containing wells and incubated for 48 h at 37° C., 5% CO2. […]

CAMK1D = CAMK1D protein knockdown by western blot; type: cell-based, human; details: KMM-1 cells, 48h after transfection
Procedure: (§3) Gene knockdown in tumor cells was induced using reverse siRNA transfection with Lipofectamine RNAiMAX (Thermo Scientific). Briefly, 200 μL of 250 nM siRNA solution was added to each well of a 6-well plate. 4 μl of RNAiMAX transfection reagent was diluted in 196 μL of RPMI (Sigma-Aldrich) and incubated for 10 min at room temperature (RT). 400 μL of additional RPMI was added and 600 μL of RNAiMAX mix was given to the siRNA coated wells and incubated for 30 min at RT. 3.5×10^5 KMM-1 (WT or luc) cells were resuspended in 1.2 mL of antibiotic-free RPMI culture medium supplemented with 10% FCS, seeded in the siRNA-RNAiMAX containing wells and incubated for 48 h at 37° C., 5% CO2. Final siRNA concentration was 25 nM in all cases.
30 μg of protein lysates were denaturated in 4×NuPAGE LDS Sample Buffer (Thermo Scientific) containing 100% ß-mercaptoethanol (PAN) at 70° C. for 10 min. Samples were spun down and separated on NuPAGE 4-12% Bis-Tris Gels (Thermo Scientific) along with PageRuler Prestained Protein Ladder (Thermo Scientific) and run at 115-150 V for 90 min.
Proteins were transferred from the gel to a PVDF membrane (Millipore) using a semi-dry western blot method. The PVDF blotting membrane (Merck Millipore) was activated in 100% methanol (Merck Millipore) for 1 min and afterwards placed in Transfer Buffer (Thermo Science) until use. Blots were assembled from anode to cathode into the Pierce Power Blot cassette (Thermo Scientific) and run at 24 V for 10 min. Membranes were washed in ix TBS and then placed in blocking solution (5% BSA/0.05% TBST) for 2 h. […] The blots were incubated with the ECL Detection Reagent (Reagent A and Reagent B, 1:1, GE Healthcare) for 4 min and the chemiluminescence was detected with myECL Imager (Thermo Scientific).

KMM-1-luc cells [4] = test: luciferase-based cytotoxicity assay of siRNA-transfected tumour cells co-cultured with MILs; type: cell-based, human; details: for T cell mediated cytotoxicity: co-culture with MILs, 10:1 E:T ratio; for viability impact of siRNA per se: viability setting, culture medium instead of T cells
Procedure: as §3, §2

KMM-1-luc cells [5] = test: treatment of scr or siCAMK1D transfected cells with recombinant FasL, TRAIL or TNF, luciferase activity; type: cell-based, human; details: siCAMK1D transfected KMM-1, 20h treatment
Procedure: as §2

Molecule | CAMK1D expression at mRNA level (CAMK1D mRNA) | CAMK1D expression at protein level (CAMK1D) | T cell mediated cytotoxicity (KMM-1-luc cells [4]) | viability impact of siRNA per se (KMM-1-luc cells [4]) | further results
Cc1cc(Nc2nc(-c3ccccc3)nc3ccccc23)n[nH]1 [QPP, (5-Methyl-1H-pyrazol-3-yl)-(2-phenylquinazolin-4-yl)amine] | – | – | – | – | tumour cell viability (luciferase intensity) after inhibitor plus recombinant FasL (Mel270 cells): induced a significant tumour cell viability; tumour cell viability (luciferase intensity) after inhibitor plus recombinant FasL (KMM-1-luc cells [1]): induced a significant tumour cell viability; IC50 [2]: 2940 nM
Cl.NCCCCCCNS(=O)(=O)c1cccc2c(Cl)cccc12 [W-7 hydrochloride] | – | – | – | – | effect on FasL induced tumour cell apoptosis (KMM-1-luc cells [3]; 5 μM, with rHuFasL): sharply recapitulated the effect of CAMK1D silencing; toxicity to KMM-1 cells (tumour cell survival by luciferase intensity) (KMM-1-luc cells [3]; 5 μM, without rHuFasL): not toxic; further increase of FasL-mediated tumour cell killing (KMM-1-luc cells [3]; combination of W-7 hydrochloride with CAMK1D silencing, after FasL exposure): 3 fold
s1: siRNA targeting hCAMK1D, UGAAGUGUAUCCCUAAGAA, Dharmacon D-004946-01, SEQ ID NO. 3 (chemistry not given here) | significantly reduced CAMK1D expression | significantly reduced CAMK1D expression | increased T cell mediated cytotoxicity | no viability impact | –
s2: siRNA targeting hCAMK1D, CAAAUCACCUGUACUUGGU, Dharmacon D-004946-02, SEQ ID NO. 4 (listed as RNA, chemistry not given here) | significantly reduced CAMK1D expression | significantly reduced CAMK1D expression | increased T cell mediated cytotoxicity | no viability impact | –
s3: siRNA targeting hCAMK1D, CCGAAAAUCUCUUGUACUA, Dharmacon D-004946-03, SEQ ID NO. 5 (listed as RNA, chemistry not given here) | significantly reduced CAMK1D expression | significantly reduced CAMK1D expression | increased T cell mediated cytotoxicity | no viability impact | –
TRAIL: recombinant human TNF-related apoptosis-inducing ligand (protein, UniProt P50591 1-281, looked up) Tumor necrosis factor ligand …: MAMMEVQGGPSLGQTCVLIVIFTVLLQSLCVAVTYVYFTNELKQMQDKYSKSGIACFLKEDDSYWDPNDEESMNSPCWQVKWQLRQLVRKMILRTSEETISTVQEKQQNISPLVRERGPQRVAAHITGTRGRSNTLSSPNSKNEKALGRKINSWESSRSGHSFLSNLHLRNGELVIHEKGFYYIYSQTYFRFQEEIKENTKNDKQMVQYIYKYTSYPDPILLMKSARNSCWSKDAEYGLYSIYQGGIFELKENDRIFVSVTNEHLIDMDHEASFFGAFLVG | – | – | – | – | reduction of CAMK1D-deficient tumour cells after exposure (KMM-1-luc cells [5]): to a much lesser degree
FasL (protein) PSPPPEKKELRKVAHLTGKSNSRSMPLEWEDTYGIVLLSGVKYKKGGLVINETGLYFVYSKVYFRGQSCNNLPLSHKVYMRNSKYPQDLVMMEGKMMSYCTTGQMWARSSYLGAVFNLTSADHLYVNVSELSLVNFEESQTFFGLYKL | – | – | – | – | reduction of CAMK1D-deficient tumour cells after exposure (KMM-1-luc cells [5]): dramatically reduced

From US20230228760A1, “INTRACELLULAR KINASE ASSOCIATED WITH RESISTANCE AGAINST T-CELL MEDIATED CYTOTOXICITY, AND USES THEREOF” (iOmx Therapeutics AG, priority 2020, published 2023)
